Experimental data taken from ChEMBL document CHEMBL3272067, “4-Halovinyl- and 4-ethynyl-4-deformylpyridoxal derivatives and related analogues as potentially irreversible antagonists of vitamin B6” (J Med Chem, 1977).
Calls of active or inactive are those of the source. No cut-off for these calls is given here.

Key:
[1] = biological target: T1, Pyridoxine-5'-phosphate oxidase (Mus musculus) (UniProt Q91XF0); test: Inhibition of pyridoxine phosphate oxidase in mouse TA3 cells assessed as inhibition of 1 x 10^-7 M pyridoxal-induced cell growth; type: cell-based
T1 sequence (whole entry): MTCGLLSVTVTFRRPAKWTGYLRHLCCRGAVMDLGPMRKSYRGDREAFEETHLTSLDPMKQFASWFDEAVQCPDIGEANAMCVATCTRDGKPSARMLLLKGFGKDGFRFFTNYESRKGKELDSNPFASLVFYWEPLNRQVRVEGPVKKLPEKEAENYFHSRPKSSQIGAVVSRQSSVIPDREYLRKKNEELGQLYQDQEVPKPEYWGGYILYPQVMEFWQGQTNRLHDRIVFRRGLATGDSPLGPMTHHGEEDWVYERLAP

[2] = biological target: T1, Pyridoxine-5'-phosphate oxidase (Mus musculus); test: Inhibition of pyridoxine phosphate oxidase in mouse TA3 cells assessed as inhibition of 1 x 10^-7 M pyridoxal-induced cell growth at 10^-4 M; type: cell-based
[3] = biological target: T1, Pyridoxine-5'-phosphate oxidase (Mus musculus); test: Inhibition of pyridoxine phosphate oxidase in mouse TA3 cells assessed as inhibition of 10^-5 M pyridoxal-induced cell growth; type: cell-based
[4] = biological target: T2, Pyridoxine-5'-phosphate oxidase (Homo sapiens) (UniProt Q9NVS9); test: Competitive inhibition of pyridoxine phosphate oxidase (unknown origin) assessed as oxidation of pyridoxol 5'-phosphate by Lineweaver-Burk plot analysis
T2 sequence (whole entry): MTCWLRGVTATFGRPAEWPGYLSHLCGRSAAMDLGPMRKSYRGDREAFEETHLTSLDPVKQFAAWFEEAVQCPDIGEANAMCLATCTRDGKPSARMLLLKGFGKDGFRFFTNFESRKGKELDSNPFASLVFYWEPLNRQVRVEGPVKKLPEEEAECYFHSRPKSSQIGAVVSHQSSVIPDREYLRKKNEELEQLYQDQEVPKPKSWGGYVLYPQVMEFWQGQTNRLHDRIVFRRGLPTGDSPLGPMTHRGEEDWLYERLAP

[5] = biological target: T3, Pyridoxal kinase (Homo sapiens, UniProt O00764); test: Competitive inhibition of pyridoxal phosphokinase (unknown origin)
T3 sequence (O00764 whole entry): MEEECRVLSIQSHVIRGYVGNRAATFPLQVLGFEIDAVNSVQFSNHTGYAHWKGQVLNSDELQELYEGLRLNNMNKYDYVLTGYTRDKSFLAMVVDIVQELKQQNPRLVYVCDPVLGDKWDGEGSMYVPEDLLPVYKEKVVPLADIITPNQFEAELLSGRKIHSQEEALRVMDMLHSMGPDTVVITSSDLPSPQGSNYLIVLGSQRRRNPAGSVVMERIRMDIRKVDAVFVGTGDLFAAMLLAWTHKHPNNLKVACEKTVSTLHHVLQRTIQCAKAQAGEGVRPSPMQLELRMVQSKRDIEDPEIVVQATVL

[6] = biological target: T3, Pyridoxal kinase; test: Non-competitive inhibition of pyridoxal phosphokinase (unknown origin)
[7] = biological target: T4, Pyridoxine-5'-phosphate oxidase (Homo sapiens, UniProt Q9NVS9); test: Non-competitive inhibition of pyridoxine phosphate oxidase (unknown origin) assessed as oxidation of pyridoxol 5'-phosphate by Lineweaver-Burk plot analysis
T4 sequence (Q9NVS9 whole entry): T2 sequence (whole entry)

Row | Structure (SMILES) | ID50 [1] | also measured
1 | CC(=O)c1c(CO)cnc(C)c1O |  | inhibition [2]: inactive
2 | Cc1ncc(CO)c(C)c1O | 6.8 ×10⁻⁸ M | growth inhibition (GI) [3]: inactive
3 | C=C(Cl)c1c(CO)cnc(C)c1O | 9.5 µM | 
4 | C#Cc1c(CO)cnc(C)c1O | 8 µM | Ki [6]: 125 µM; ID50 [3]: 9 ×10⁻⁵ M
5 | C#Cc1c(COP(=O)(O)O)cnc(C)c1O | 3.8 µM | Ki [7]: 0.55 µM

More lines, main results first:

Row | ID50 [1] | Structure (SMILES) | also measured
6 | 1.5 ×10⁻⁵ M | CC/C=C/c1c(COCc2ccccc2)cnc(C)c1OCc1ccccc1 | 
7 | 3 µM | Cc1ncc(COCc2ccccc2)c(/C=C/Cl)c1OCc1ccccc1 | 
8 | 0.0025 µM | C=Cc1c(CO)cnc(C)c1O | growth inhibition (GI) [3]: inactive; inhibition [4]: Active; Ki [5]: 22.5 µM
9 | 1.2 ×10⁻⁵ M | Cc1ncc(CO)c(/C=C/Br)c1O | 
10 | 1.5 ×10⁻⁵ M | C=C/C=C/c1c(COCc2ccccc2)cnc(C)c1OCc1ccccc1 | 
